# In patent publication US7919077B2, “Pharmaceutical compositions comprising CCL2 and use of same for the treatment of inflammation” (Yeda Research and Development Co. Ltd., priority 2006, dated 2011):
# Columns and labels:
# [1] = test system: human T cells interacting with ICAM-1 (LFA-1); assay: Laminar flow adhesion assay on ICAM-1 with co-immobilized CCL21; type: cell-based; conditions: low dose chemokine pretreatment
# Protocol: (§1) Laminar flow adhesion assays—Purified VCAM-1 or ICAM-1-Fc (both from R&D Systems, Minneapolis, Minn.) were coated with or without CCL21 (R&D Systems) on polystyrene plates as previously described [Grabovsky et al., J Exp Med. (2000) 192:495-506; Sigal et al., J Immunol. (2000) 165:442-452]. The polystyrene plates were each assembled on the lower wall of the flow chamber as previously described [Feigelson et al., J Biol Chem. (2001) 276:13891-13901]. All flow experiments were conducted at 37° C. Cells were washed with cation-free H/H medium, resuspended in binding medium (H/H medium supplemented with 1 mM CaCl2 and 1 mM MgCl2) and perfused through the flow chamber at low shear stress (0.5-0.75 dyn/cm^2) for 2 minutes. Tethers were defined as transient or rolling if cells attached briefly (<2 seconds) to the substrate and as arrests if immediately arrested and remaining stationary for at least 5 seconds of continuous flow. Frequencies of adhesive categories within differently pretreated cells were determined as a percentage of cells flowing immediately over the substrates, as previously described [Grabovsky et al., supra]. To assess resistance to detachment over time, accumulated cells were subjected to a shear stress of 5 dyn/cm^2 for 5 minutes. At the indicated time points, the number of cells that remained bound was expressed relative to T cell population originally accumulated in the first 2 minute period of the assay. Over 90% of cellular tethers to VCAM-1 or ICAM-1 were blocked by pretreating cells with VLA-4 or LFA-1 blockers respectively.
# [2] = test system: effector (Th1, Th2) T cells; assay: Cytoskeleton rearrangement (actin polymerization), effector T cells; type: cell-based, mice; conditions: CCL2 0.1 ng/ml
# Protocol: T cell sorting—Spleen and […] were obtained from mice as previously described [Shachar I. and Flavell R. A., Science 274:106 (1996)]. T cells were enriched using the MACS system (Miltenyi Biotec, Auburn, Calif.) according to the manufacturer's protocol. Spleen cells were incubated with anti-CD45R (B220) magnetic beads (Miltenyi Biotec, Auburn, Calif.) and the CD45 negative cells were collected. CD4+ T cells were enriched using anti-CD4 magnetic beads (Miltenyi Biotec, Auburn, Calif.). […]
# Cytoskeleton rearrangement—T cells were pre-incubated for 30 minutes in the presence or absence of CCL2 (0.1 ng/ml), and then stimulated with either CXCL12 (0.1 mg/ml PeproTech, Inc., Rocky Hill N.J.) or SLC (CCL21, 0.4 mg/ml, PeproTech, Inc., Rocky Hill, N.J.), for 15 seconds. Cells were then immediately fixed with paraformaldehyde, permeabilized and their intracellular F-actin was stained with FITC-phalloidin (Sigma-Aldrich, St. Louis, Mo.), and then analyzed by flow cytometry to determine the state of their cytoskeleton, as previously described [Flaishon, L. F., et al., J. Biol. Chem. 276:46701 (2001)].
# naïve T cells [3] = assay: Transwell migration assay, naïve T cells; type: cell-based, mice; conditions: cells pre-treated 30 min with CCL2 0.1 ng/ml, 3 hours migration
# Protocol: Stimulation of T cells—Cell stimulation was performed as previously described [Flaishon et al., J Biol Chem. (2001) 276:46701-46706]. Briefly, 1×10^7 T cells were suspended in 1 ml DMEM cell medium containing 10% (v/v) Fetal Calf Serum (FCS). Next, 0.1 ng/ml CCL2 (CytoLab) was added to each tube and the tubes were immediately placed in 37° C. for 30 minutes. Immediately after stimulation, cells were washed and handled as described hereinbelow.
# Transwell migration assay—Chemotaxis was assayed using Transwell chambers as was previously described [Flaishon, L. F., et al., J. Biol. Chem. 276:46701 (2001)]. Naive T cells were suspended for 30 minutes with RPMI medium with or without CCL2 (0.1 ng/ml, Peprotech Inc., Rocky Hill, N.J.), and thereafter placed in the upper chamber of a 24 well Transwell plate, and allowed to migrate towards CXCL12 (SDF-1, 0.1 mg/ml PeproTech, Inc., Rocky Hill, N.J.) or to the secondary lymphoid tissue chemokine (SLC, CCL21, 0.4 mg/ml; PeproTech, Inc., Rocky Hill, N.J.), placed in the lower chamber. Following 3 hours, the number of the migrating cells found in the lower chamber was evaluated by FACS (FACS calibur, BD bioscience). Assay was repeated 3 times and results were analyzed as percent migration, being the number of migrating cells in the lower chamber as a fraction of the input cells in the upper chamber.
# [4] = test system: human T cells interacting with VCAM-1 (VLA-4); assay: Laminar flow adhesion assay on VCAM-1 with co-immobilized CCL21; type: cell-based; conditions: low dose chemokine pretreatment
# Protocol: as §1
# naïve T cells [5] = assay: Tracking of cells in vivo: homing of naïve T cells to LN and spleen; set-up: species or system C57BL/6 mice; conditions: cells pre-incubated 30 min with CCL2 0.1 ng/ml, injected i.v., 3 hours, vs control
# Protocol: Tracking of cells in vivo—T cells pre-incubated for 30 minutes in the presence or absence of CCL2 (0.1 ng/ml RPMI) were washed, and labeled with […] of the fluorescent dye CFDA-SE (Molecular Probes/Invitrogen, Carlsbad, Calif., USA) for 15 minutes at room temperature. Thereafter, an equal amount (0.33×10^7) of CCL2-treated or -untreated cells were injected i.v. into C57BL/6 mice. After 3 hours, LNs and spleens were collected and the FITC-positive population was analyzed by FACS. The proportion of labeled cells recovered in the LN and spleen was determined as previously described [Flaishon, L. R., J. Exp. Med. 192:1381 (2000)] in four different experiments (10 mice in each group).
substance,measurement,setting,value
"CCL2: mammalian (e.g., human) CCL2 protein, GenBank NM_002982 / NP_002973; murine CCL2 used in the asthma model",post arrest adhesion strengthening on ICAM-1 (resistance to detachment),"[1]; high shear stress 5 dyn/cm^2, FIG. 6b",failed to develop adhesion strengthening
same,LFA-1 activation by surface bound CCL21 (arrest on ICAM-1),"[1]; shear stress 0.5 dyn/cm^2, FIG. 6a",did not interfere
same,CCL21 induced cytoskeleton rearrangement of effector cells,[2]; CCL21 0.4 mg/ml 15 seconds,down-regulated
same,CXCL12 induced cytoskeleton rearrangement of effector cells,[2]; CXCL12 15 seconds,down-regulated
same,inhibition of migration of naïve T cells towards CXCL12,naïve T cells [3]; FIG. 2a,40-50%
same,inhibition of migration of naïve T cells towards CCL21,naïve T cells [3]; FIG. 2b,40-50%
same,post arrest adhesion strengthening on VCAM-1 (resistance to detachment),"[4]; high shear stress 5 dyn/cm^2, FIG. 6d",failed to develop adhesion strengthening
same,VLA-4 activation by surface bound CCL21 (arrest on VCAM-1),"[4]; shear stress 0.75 dyn/cm^2, FIG. 6c",did not interfere
same,reduction in homing of naïve T cells into the LN,naïve T cells [5]; FIG. 4a,50%
same,migration of T cells to the spleen,naïve T cells [5]; FIG. 4b,no difference
